Laboratory results from ChEMBL document CHEMBL1177694, “Multivalent catanionic GalCer analogs derived from first generation dendrimeric phosphonic acids” (Bioorg Med Chem, 2010).

Tests used:
[1] = tested on: Human immunodeficiency virus 1; experiment: Antiviral activity against HIV1 LAI infected in human CEM-SS cells assessed as inhibition of viral replication after 5 days by MTT assay; type: functional, organism-based; details: Human immunodeficiency virus 1, LAI, 120 h
[2] = Cytotoxicity against human CEM-SS cells after 5 days by MTT assay; type: cell-based
[3] = Therapeutic index, ratio of CC50 for human CEM-SS cells to IC50 for HIV1 LAI infected in human CEM-SS cells; type: cell-based; details: CEM-SS cells (uninfected and infected with HIV1 LAI), read-out: Ratio CC50/IC50

Row | SMILES | IC50 [1] | CC50 at 120 h [2] | selectivity ratio [3]
1 | CCCCCCCCCCC(C(=O)NCCc1ccc(OP(=S)(Oc2ccc(CCNC(=O)C(CCCCCCCCCC)P(=O)(O)O)cc2)N(C)/N=C/c2ccc(OP3(Oc4ccc(/C=N/N(C)P(=S)(Oc5ccc(CCNC(=O)C(CCCCCCCCCC)P(=O)(O)O)cc5)Oc5ccc(CCNC(=O)C(CCCCCCCCCC)P(=O)(O)O)cc5)cc4)=NP(Oc4ccc(/C=N/N(C)P(=S)(Oc5ccc(CCNC(=O)C(CCCCCCCCCC)P(=O)(O)O)cc5)Oc5ccc(CCNC(=O)C(CCCCCCCCCC)P(=O)(O)O)cc5)cc4)(Oc4ccc(/C=N/N(C)P(=S)(Oc5ccc(CCNC(=O)C(CCCCCCCCCC)P(=O)(O)O)cc5)Oc5ccc(CCNC(=O)C(CCCCCCCCCC)P(=O)(O)O)cc5)cc4)=NP(Oc4ccc(/C=N/N(C)P(=S)(Oc5ccc(CCNC(=O)C(CCCCCCCCCC)P(=O)(O)O)cc5)Oc5ccc(CCNC(=O)C(CCCCCCCCCC)P(=O)(O)O)cc5)cc4)(Oc4ccc(/C=N/N(C)P(=S)(Oc5ccc(CCNC(=O)C(CCCCCCCCCC)P(=O)(O)O)cc5)Oc5ccc(CCNC(=O)C(CCCCCCCCCC)P(=O)(O)O)cc5)cc4)=N3)cc2)cc1)P(=O)(O)O (configuration not stated) | 16 µM | > 100 µM | > 6
2 | CN(/N=C/c1ccc(OP2(Oc3ccc(/C=N/N(C)P(=S)(Oc4ccc(/C=C/P(=O)(O)O)cc4)Oc4ccc(/C=C/P(=O)(O)O)cc4)cc3)=NP(Oc3ccc(/C=N/N(C)P(=S)(Oc4ccc(/C=C/P(=O)(O)O)cc4)Oc4ccc(/C=C/P(=O)(O)O)cc4)cc3)(Oc3ccc(/C=N/N(C)P(=S)(Oc4ccc(/C=C/P(=O)(O)O)cc4)Oc4ccc(/C=C/P(=O)(O)O)cc4)cc3)=NP(Oc3ccc(/C=N/N(C)P(=S)(Oc4ccc(/C=C/P(=O)(O)O)cc4)Oc4ccc(/C=C/P(=O)(O)O)cc4)cc3)(Oc3ccc(/C=N/N(C)P(=S)(Oc4ccc(/C=C/P(=O)(O)O)cc4)Oc4ccc(/C=C/P(=O)(O)O)cc4)cc3)=N2)cc1)P(=S)(Oc1ccc(/C=C/P(=O)(O)O)cc1)Oc1ccc(/C=C/P(=O)(O)O)cc1 | 0.65 µM | > 100 µM | > 153
3 | CN(/N=C/c1ccc(OP2(Oc3ccc(/C=N/N(C)P(=S)(Oc4ccc(C(O)P(=O)(O)O)cc4)Oc4ccc(C(O)P(=O)(O)O)cc4)cc3)=NP(Oc3ccc(/C=N/N(C)P(=S)(Oc4ccc(C(O)P(=O)(O)O)cc4)Oc4ccc(C(O)P(=O)(O)O)cc4)cc3)(Oc3ccc(/C=N/N(C)P(=S)(Oc4ccc(C(O)P(=O)(O)O)cc4)Oc4ccc(C(O)P(=O)(O)O)cc4)cc3)=NP(Oc3ccc(/C=N/N(C)P(=S)(Oc4ccc(C(O)P(=O)(O)O)cc4)Oc4ccc(C(O)P(=O)(O)O)cc4)cc3)(Oc3ccc(/C=N/N(C)P(=S)(Oc4ccc(C(O)P(=O)(O)O)cc4)Oc4ccc(C(O)P(=O)(O)O)cc4)cc3)=N2)cc1)P(=S)(Oc1ccc(C(O)P(=O)(O)O)cc1)Oc1ccc(C(O)P(=O)(O)O)cc1 (configuration not stated) | 50 µM | > 100 µM | > 2
4 | CN(/N=C/c1ccc(OP2(Oc3ccc(/C=N/N(c4ccc(CCN(CP(=O)(O)O)CP(=O)(O)O)cc4)P(O)(=S)Oc4ccc(CCN(CP(=O)(O)O)CP(=O)(O)O)cc4)cc3)=NP(Oc3ccc(/C=N/N(C)P(=S)(Oc4ccc(CCN(CP(=O)(O)O)CP(=O)(O)O)cc4)Oc4ccc(CCN(CP(=O)(O)O)CP(=O)(O)O)cc4)cc3)(Oc3ccc(/C=N/N(C)P(=S)(Oc4ccc(CCN(CP(=O)(O)O)CP(=O)(O)O)cc4)Oc4cccc(CCN(CP(=O)(O)O)CP(=O)(O)O)c4)cc3)=NP(Oc3ccc(/C=N/N(C)P(=S)(Oc4ccc(CCN(CP(=O)(O)O)CP(=O)(O)O)cc4)Oc4ccc(CCN(CP(=O)(O)O)CP(=O)(O)O)cc4)cc3)(Oc3ccc(/C=N/N(C)P(=S)(Oc4ccc(CCN(CP(=O)(O)O)CP(=O)(O)O)cc4)Oc4ccc(CCN(CP(=O)(O)O)CP(=O)(O)O)cc4)cc3)=N2)cc1)P(=S)(Oc1ccc(CCN(CP(=O)(O)O)CP(=O)(O)O)cc1)Oc1ccc(CCN(CP(=O)(O)O)CP(=O)(O)O)cc1 (configuration not stated) | 20 µM | > 100 µM | > 5
5 | CN(/N=C/c1ccc(OP2(Oc3ccc(/C=N/N(C)P(=S)(Oc4ccc(CCNC(=O)CP(=O)(O)O)cc4)Oc4ccc(CCNC(=O)CP(=O)(O)O)cc4)cc3)=NP(Oc3ccc(/C=N/N(C)P(=S)(Oc4ccc(CCNC(=O)CP(=O)(O)O)cc4)Oc4ccc(CCNC(=O)CP(=O)(O)O)cc4)cc3)(Oc3ccc(/C=N/N(C)P(=S)(Oc4ccc(CCNC(=O)CP(=O)(O)O)cc4)Oc4ccc(CCNC(=O)CP(=O)(O)O)cc4)cc3)=NP(Oc3ccc(/C=N/N(C)P(=S)(Oc4ccc(CCNC(=O)CP(=O)(O)O)cc4)Oc4ccc(CCNC(=O)CP(=O)(O)O)cc4)cc3)(Oc3ccc(/C=N/N(C)P(=S)(Oc4ccc(CCNC(=O)CP(=O)(O)O)cc4)Oc4ccc(CCNC(=O)CP(=O)(O)O)cc4)cc3)=N2)cc1)P(=S)(Oc1ccc(CCNC(=O)CP(=O)(O)O)cc1)Oc1ccc(CCNC(=O)CP(=O)(O)O)cc1 | 25 µM | > 100 µM | > 4
6 | CCCC(C(=O)NCCc1ccc(OP(=S)(Oc2ccc(CCNC(=O)C(CCC)P(=O)(O)O)cc2)N(C)/N=C/c2ccc(OP3(Oc4ccc(/C=N/N(C)P(=S)(Oc5ccc(CCNC(=O)C(CCC)P(=O)(O)O)cc5)Oc5ccc(CCNC(=O)C(CCC)P(=O)(O)O)cc5)cc4)=NP(Oc4ccc(/C=N/N(C)P(=S)(Oc5ccc(CCNC(=O)C(CCC)P(=O)(O)O)cc5)Oc5ccc(CCNC(=O)C(CCC)P(=O)(O)O)cc5)cc4)(Oc4ccc(/C=N/N(C)P(=S)(Oc5ccc(CCNC(=O)C(CCC)P(=O)(O)O)cc5)Oc5ccc(CCNC(=O)C(CCC)P(=O)(O)O)cc5)cc4)=NP(Oc4ccc(/C=N/N(C)P(=S)(Oc5ccc(CCNC(=O)C(CCC)P(=O)(O)O)cc5)Oc5ccc(CCNC(=O)C(CCC)P(=O)(O)O)cc5)cc4)(Oc4ccc(/C=N/N(C)P(=S)(Oc5ccc(CCNC(=O)C(CCC)P(=O)(O)O)cc5)Oc5ccc(CCNC(=O)C(CCC)P(=O)(O)O)cc5)cc4)=N3)cc2)cc1)P(=O)(O)O (configuration not stated) | 1.5 µM | > 100 µM | > 67
7 | CCCC(C(=O)NCCc1ccc(OP(=S)(Oc2ccc(CCNC(=O)C(CCC)P(=O)(O)O)cc2)N(C)/N=C/c2ccc(OP3(Oc4ccc(/C=N/N(C)P(=S)(Oc5ccc(CCNC(=O)C(CCC)P(=O)(O)O)cc5)Oc5ccc(CCNC(=O)C(CCC)P(=O)(O)O)cc5)cc4)=NP(Oc4ccc(/C=N/N(C)P(=S)(Oc5ccc(CCNC(=O)C(CCC)P(=O)(O)O)cc5)Oc5ccc(CCNC(=O)C(CCC)P(=O)(O)O)cc5)cc4)(Oc4ccc(/C=N/N(C)P(=S)(Oc5ccc(CCNC(=O)C(CCC)P(=O)(O)O)cc5)Oc5ccc(CCNC(=O)C(CCC)P(=O)(O)O)cc5)cc4)=NP(Oc4ccc(/C=N/N(C)P(=S)(Oc5ccc(CCNC(=O)C(CCC)P(=O)(O)O)cc5)Oc5ccc(CCNC(=O)C(CCC)P(=O)(O)O)cc5)cc4)(Oc4ccc(/C=N/N(C)P(=S)(Oc5ccc(CCNC(=O)C(CCC)P(=O)(O)O)cc5)Oc5ccc(CCNC(=O)C(CCC)P(=O)(O)O)cc5)cc4)=N3)cc2)cc1)P(=O)(O)O.CCCCCCCCCCCCCCCCNOC(CO)C(O)C(OC1OC(CO)C(O)C(O)C1O)C(O)CO.CCCCCCCCCCCCCCCCNOC(CO)C(O)C(OC1OC(CO)C(O)C(O)C1O)C(O)CO.CCCCCCCCCCCCCCCCNOC(CO)C(O)C(OC1OC(CO)C(O)C(O)C1O)C(O)CO.CCCCCCCCCCCCCCCCNOC(CO)C(O)C(OC1OC(CO)C(O)C(O)C1O)C(O)CO.CCCCCCCCCCCCCCCCNOC(CO)C(O)C(OC1OC(CO)C(O)C(O)C1O)C(O)CO.CCCCCCCCCCCCCCCCNOC(CO)C(O)C(OC1OC(CO)C(O)C(O)C1O)C(O)CO (configuration not stated) | 0.33 µM | 1.5 µM | 4.5
8 | CCCCCCCCCCCCCCCCNOC(CO)C(O)C(OC1OC(CO)C(O)C(O)C1O)C(O)CO.CCCCCCCCCCCCCCCCNOC(CO)C(O)C(OC1OC(CO)C(O)C(O)C1O)C(O)CO.CCCCCCCCCCCCCCCCNOC(CO)C(O)C(OC1OC(CO)C(O)C(O)C1O)C(O)CO.CCCCCCCCCCCCCCCCNOC(CO)C(O)C(OC1OC(CO)C(O)C(O)C1O)C(O)CO.CCCCCCCCCCCCCCCCNOC(CO)C(O)C(OC1OC(CO)C(O)C(O)C1O)C(O)CO.CCCCCCCCCCCCCCCCNOC(CO)C(O)C(OC1OC(CO)C(O)C(O)C1O)C(O)CO.CN(/N=C/c1ccc(OP2(Oc3ccc(/C=N/N(C)P(=S)(Oc4ccc(CCNC(=O)CP(=O)(O)O)cc4)Oc4ccc(CCNC(=O)CP(=O)(O)O)cc4)cc3)=NP(Oc3ccc(/C=N/N(C)P(=S)(Oc4ccc(CCNC(=O)CP(=O)(O)O)cc4)Oc4ccc(CCNC(=O)CP(=O)(O)O)cc4)cc3)(Oc3ccc(/C=N/N(C)P(=S)(Oc4ccc(CCNC(=O)CP(=O)(O)O)cc4)Oc4ccc(CCNC(=O)CP(=O)(O)O)cc4)cc3)=NP(Oc3ccc(/C=N/N(C)P(=S)(Oc4ccc(CCNC(=O)CP(=O)(O)O)cc4)Oc4ccc(CCNC(=O)CP(=O)(O)O)cc4)cc3)(Oc3ccc(/C=N/N(C)P(=S)(Oc4ccc(CCNC(=O)CP(=O)(O)O)cc4)Oc4ccc(CCNC(=O)CP(=O)(O)O)cc4)cc3)=N2)cc1)P(=S)(Oc1ccc(CCNC(=O)CP(=O)(O)O)cc1)Oc1ccc(CCNC(=O)CP(=O)(O)O)cc1 | 0.4 µM | 1.9 µM | 4.8
9 | CCCCCCCCCC(C(=O)NCCc1ccc(OP(=S)(Oc2ccc(CCNC(=O)C(CCCCCCCCC)P(=O)(O)O)cc2)N(C)/N=C/c2ccc(OP3(Oc4ccc(/C=N/N(C)P(=S)(Oc5ccc(CCNC(=O)C(CCCCCCCCC)P(=O)(O)O)cc5)Oc5ccc(CCNC(=O)C(CCCCCCCCC)P(=O)(O)O)cc5)cc4)=NP(Oc4ccc(/C=N/N(C)P(=S)(Oc5ccc(CCNC(=O)C(CCCCCCCCC)P(=O)(O)O)cc5)Oc5ccc(CCNC(=O)C(CCCCCCCCC)P(=O)(O)O)cc5)cc4)(Oc4ccc(/C=N/N(C)P(=S)(Oc5ccc(CCNC(=O)C(CCCCCCCCC)P(=O)(O)O)cc5)Oc5ccc(CCNC(=O)C(CCCCCCCCC)P(=O)(O)O)cc5)cc4)=NP(Oc4ccc(/C=N/N(C)P(=S)(Oc5ccc(CCNC(=O)C(CCCCCCCCC)P(=O)(O)O)cc5)Oc5ccc(CCNC(=O)C(CCCCCCCCC)P(=O)(O)O)cc5)cc4)(Oc4ccc(/C=N/N(C)P(=S)(Oc5ccc(CCNC(=O)C(CCCCCCCCC)P(=O)(O)O)cc5)Oc5ccc(CCNC(=O)C(CCCCCCCCC)P(=O)(O)O)cc5)cc4)=N3)cc2)cc1)P(=O)(O)O.CCCCCCCCCCCCCCCCNOC(CO)C(O)C(OC1OC(CO)C(O)C(O)C1O)C(O)CO.CCCCCCCCCCCCCCCCNOC(CO)C(O)C(OC1OC(CO)C(O)C(O)C1O)C(O)CO.CCCCCCCCCCCCCCCCNOC(CO)C(O)C(OC1OC(CO)C(O)C(O)C1O)C(O)CO.CCCCCCCCCCCCCCCCNOC(CO)C(O)C(OC1OC(CO)C(O)C(O)C1O)C(O)CO.CCCCCCCCCCCCCCCCNOC(CO)C(O)C(OC1OC(CO)C(O)C(O)C1O)C(O)CO.CCCCCCCCCCCCCCCCNOC(CO)C(O)C(OC1OC(CO)C(O)C(O)C1O)C(O)CO (configuration not stated) | 0.31 µM | 6.1 µM | 19.7
